Test results taken from PMC9127750, “Structure-based design of CDC42 effector interaction inhibitors for the treatment of cancer” (Cell reports, 2022).
Where “and” joins values, the source holds several entries; their conditions need not be identical. Equal entries are not always repeated.

Tested on: WM3248 melanoma cells, 486 antibodies
Assay: Reverse phase protein arrays (RPPA)
Assay type: cell-based, Human
Details: 5 uM, single replicates
Excerpt: Pellets were snap frozen in liquid nitrogen and shipped to MD Anderson Cancer Center core RPPA facility for RPPA analysis (Table S5). Three biological replicates for each sample were generated.
Nomenclatures on the RPPA heatmaps: name_of_antibody.species_of_antibody.status_of_antibody. V - antibody validated; C - validation of antibody in progress; Q - antibody nonspecific; E – under evaluation; antibodies raised in M - mouse, G - goat, R - rabbit, or T - rat.

CN(C)c1cccc(Nc2cc(-c3ccccc3)nc(C3CCNCC3)n2)c1 [ARN22089, N1,N1-dimethyl-N3-(6-phenyl-2-(piperidin-4-yl)pyrimidin-4-yl)benzene-1,3-diamine]
RPPA RIP3.R.C: 0.966 and 1.053 and 1.158
RPPA RIP.R.C: 1.003 and 0.876 and 0.747
RPPA RPA32.R.V: 0.852 and 0.696
RPPA RPA32_pS4_S8.R.C: 1.136 and 0.833 and 0.517
RPPA RRM1.R.C: 0.879 and 1.059 and 1.047
RPPA RRM2.R.C: 0.859 and 1.229 and 0.937
RPPA RSK1.R.V: 1.126 and 0.877 and 0.665
RPPA RSK.R.C: 1.019 and 0.958
RPPA Rab11.R.C: 0.952 and 1.156 and 1.116
RPPA Rab25.R.V: 0.918 and 1.136 and 1.098
RPPA Rad17_pS645.R.V: 0.999 and 1.251 and 0.988
RPPA Rad23A.R.C: 0.955 and 1.149 and 0.502
RPPA Rad50.R.V: 1.003 and 1.194 and 0.770
RPPA Rad51.R.C: 1.003 and 1.032 and 0.980
RPPA Raptor.R.V: 0.960 and 1.161 and 0.962
RPPA Rb.M.Q: 1.194 and 0.869 and 0.844
RPPA Rb_pS807_S811.R.V: 1.080 and 1.099 and 0.998
RPPA Rheb.M.C: 1.062 and 0.914 and 0.936
RPPA Rictor.R.C: 1.000 and 1.032 and 1.026
RPPA Rictor_pT1135.R.V: 1.014 and 1.199 and 1.106
RPPA S6.M.V: 1.062 and 0.879 and 1.272
RPPA S6_pS235_S236.R.V: 1.439 and 1.242 and 1.218
RPPA S6_pS240_S244.R.V: 1.857 and 2.231 and 1.126
RPPA SCD.M.V: 1.065 and 0.945 and 1.006
RPPA SDHA.R.V: 0.933 and 1.191 and 1.108
RPPA SF2.R.V: 1.031 and 0.941 and 1.112
RPPA SFRP1.R.V: 1.004 and 0.892 and 0.990
RPPA SGK1.R.V: 1.163 and 1.199 and 0.933
RPPA SGK3.R.V: 0.990 and 0.992 and 0.997
RPPA SHP2.R.V: 1.046 and 0.930 and 1.005
RPPA SHP.2_pY542.R.C: 0.901 and 0.851
RPPA SIRPαR.V: 1.213 and 0.860 and 0.910
RPPA SLC1A5.R.C: 0.927 and 0.907 and 0.859
RPPA SOD1.M.V: 0.996 and 0.939
RPPA SOD2.R.V: 1.034 and 0.952 and 1.114
RPPA SOX7.R.V: 0.983 and 0.930 and 0.848
RPPA STING.R.V: 0.930 and 1.130 and 0.957
RPPA Shc_pY317.R.C: 0.667 and 0.896
RPPA Slfn11.G.C: 0.877 and 0.828 and 0.650
RPPA Smac.M.Q: 0.952 and 1.016 and 0.799
RPPA Smad1.R.V: 0.992 and 1.196 and 1.151
RPPA Smad3.R.V: 0.939 and 1.113 and 0.837
RPPA Smad4.R.V: 1.058 and 0.905 and 1.133
RPPA Snail.M.Q: 1.030 and 0.955 and 1.052
RPPA Sox2.R.V: 0.983 and 0.974 and 1.000
RPPA Sox17.R.V: 0.873 and 0.902
RPPA Src.M.V: 1.031 and 1.029 and 1.140
RPPA Src_pY416.R.V: 1.004 and 0.964
RPPA Src_pY527.R.V: 0.980 and 1.499
RPPA Stat1_pY701.R.V: 1.025 and 0.919 and 0.955
RPPA Stat3.R.C: 1.026 and 1.019
RPPA Stat3_pY705.R.C: 1.097 and 0.794 and 0.850
RPPA Stat5a.R.V: 0.973 and 1.401 and 1.115
RPPA Stathmin.1.R.V: 0.937 and 0.952 and 1.084
RPPA Syk.M.V: 0.889 and 1.061 and 1.011
RPPA Synaptophysin.R.C: 1.047 and 0.925 and 1.079
RPPA TAZ.R.V: 1.033 and 0.986 and 0.848
RPPA TEAD.R.C: 0.869 and 1.210 and 0.956
RPPA TFAM.R.V: 0.929 and 1.064 and 1.050
RPPA TFRC.R.V: 0.850 and 0.994
RPPA TIGAR.R.V: 1.007 and 1.053
RPPA TRAP1.M.V: 1.020 and 0.986
RPPA TRIM24.R.C: 1.055 and 0.901
RPPA TRIM25.R.C: 0.917 and 1.142 and 1.151
RPPA TRIP13.R.V: 1.080 and 0.849 and 0.914
RPPA Tau.M.C: 0.914 and 1.000
RPPA Transglutaminase.M.V: 1.130 and 0.535
RPPA level HLA.DQA1.R.V: 0.968 and 1.061 and 0.815
RPPA level HLA.DR.DP.DQ.DX.R.C: 0.974 and 0.976 and 0.833
RPPA level HMHA1.R.V: 1.021 and 1.238 and 1.140
RPPA level HNRNPK.R.V: 0.971 and 0.906
RPPA level HSP27.M.C: 1.164 and 1.033
RPPA level HSP27_pS82.R.V: 0.984 and 1.234 and 1.120
RPPA level HSP60.R.V: 0.905 and 1.108
RPPA level HSP70.R.C: 0.973 and 0.970
RPPA level Hexokinase.I.R.C: 0.945 and 0.709
RPPA level Hexokinase.II.R.V: 1.124 and 0.975 and 0.876
RPPA level Hif.1αR.C: 1.102 and 1.349 and 0.701
RPPA level Histone.H3.R.V: 0.982 and 1.330 and 0.576
RPPA level Histone.H3_pS10.R.V: 0.692 and 0.713
RPPA level IDO.R.C: 0.970 and 1.199 and 1.031
